Earlier results, collected in publication PMC4412257, “2′,6′-Dimethylphenylalanine: A Useful Aromatic Amino Acid Surrogate for Tyr or Phe Residue in Opioid Peptides” (International Journal of Medicinal Chemistry, 2012).
No end group written: not given here.

Tests used:
[1] = design: method as in PMID 16321540; conditions: determined by HPLC; cited from earlier work
human ORL1 receptor = molecular target: human ORL1 receptor; design: method as in PMID 16321540; conditions: read-out: IC50 ± SEM, ORL1 receptor, [3H]NOC; cell membrane expressing human ORL1 receptor in Hek-293 cells; cited from earlier work
Aminopeptidase M = system: Aminopeptidase M; design: method as in PMID 16321540; conditions: determined by HPLC; cited from earlier work
guinea pig ileum (GPI) = system: guinea pig ileum (GPI); design: method as in PMID 16321540; conditions: cited from earlier work; for IC50: DYN analogs, read-out: GPI assay IC50 ± SEM; for Ke value of receptor selective antagonist CTAP (μ) / Ke value of receptor selective antagonist nor-BNI (κ) / Ke value of receptor selective antagonist N,N(Me)2Dmt-Tic-OH (δ): GPI assay, antagonist against the peptide
δ-opioid receptor = conditions: rat brain homogenate; read-out: IC50 ± SEM, opioid receptor, [3H]DT (δ); cited from earlier work
μ-opioid receptor = conditions: rat brain homogenate; read-out: IC50 ± SEM, opioid receptor, [3H]DAMGO (μ); cited from earlier work
κ-opioid receptor = molecular target: κ-opioid receptor; design: method as in PMID 16321540; conditions: guinea pig brain homogenate; read-out: IC50 ± SEM, opioid receptor, [3H]U-69593 (κ); cited from earlier work

DYN(1-13)-NH2 (YGGFLRRIRPKLK-NH2; UniProt P01213 207-219, looked up, fragment) [parent peptide, dynorphin A (1-13) amide, reference compound]
Half-life time, Rat brain homogenate [1]: 435 min | IC50 (human ORL1 receptor): 18.8 ± 3.01 nM | Half-life time, Aminopeptidase M (Aminopeptidase M): 15.5 min | IC50 (guinea pig ileum (GPI)): 3.14 ± 1.13 nM

Met-enkephalin [reference compound]
Half-life time, Rat brain homogenate [1]: 8.5 min | Half-life time, Aminopeptidase M (Aminopeptidase M): <5 min

[Dmp^1,4]DYN(1-13)-NH2 [compound 28]
Half-life time, Rat brain homogenate [1]: 770 min | IC50 (human ORL1 receptor): 51.5 ± 1.62 nM | IC50 (δ-opioid receptor): 415 ± 185 nM | IC50 (μ-opioid receptor): 251 ± 56.3 nM | IC50 (κ-opioid receptor): 5.45 ± 1.65 nM | IC50 (guinea pig ileum (GPI)): 1340 ± 303 nM | Ke value of receptor selective antagonist CTAP (μ) (guinea pig ileum (GPI)): 595 nM | Ke value of receptor selective antagonist nor-BNI (κ) (guinea pig ileum (GPI)): 809 nM

[Dmp^1,4]NOC(1-13)-NH2 [compound 31]
Half-life time, Rat brain homogenate [1]: 27.1 min | IC50 (human ORL1 receptor): 21.3 ± 3.2 nM | IC50 (δ-opioid receptor): 3410 ± 990 nM | IC50 (μ-opioid receptor): 56.8 ± 12.3 nM | IC50 (κ-opioid receptor): 100 ± 29 nM

[Dmp^1]DYN(1-13)-NH2 [compound 27]
Half-life time, Rat brain homogenate [1]: 577 min | IC50 (human ORL1 receptor): 6.6 ± 0.952 nM | IC50 (δ-opioid receptor): 10.1 ± 6.02 nM | IC50 (μ-opioid receptor): 16.4 ± 2.35 nM | Half-life time, Aminopeptidase M (Aminopeptidase M): >30 min | IC50 (guinea pig ileum (GPI)): 306 ± 68 nM | Ke value of receptor selective antagonist CTAP (μ) (guinea pig ileum (GPI)): 115 nM | Ke value of receptor selective antagonist N,N(Me)2Dmt-Tic-OH (δ) (guinea pig ileum (GPI)): >1000 nM | Ke value of receptor selective antagonist nor-BNI (κ) (guinea pig ileum (GPI)): 10 nM

[Dmp^1]NOC(1-13)-NH2 [compound 30]
Half-life time, Rat brain homogenate [1]: 60.3 min | IC50 (human ORL1 receptor): 0.814 ± 0.09 nM | IC50 (δ-opioid receptor): 292 ± 61 nM | IC50 (μ-opioid receptor): 25 ± 6.5 nM | Half-life time, Aminopeptidase M (Aminopeptidase M): 28 min | IC50 (κ-opioid receptor): 38.8 ± 16.7 nM

[Dmp^4]DYN(1-13)-NH2 [compound 26]
Half-life time, Rat brain homogenate [1]: 315 min | IC50 (human ORL1 receptor): 188 ± 18.2 nM | IC50 (δ-opioid receptor): 931 ± 723 nM | IC50 (μ-opioid receptor): 22.4 ± 10.2 nM | IC50 (κ-opioid receptor): 0.044 ± 0.035 nM | IC50 (guinea pig ileum (GPI)): 32.2 ± 9.16 nM | Ke value of receptor selective antagonist CTAP (μ) (guinea pig ileum (GPI)): 108 nM | Ke value of receptor selective antagonist N,N(Me)2Dmt-Tic-OH (δ) (guinea pig ileum (GPI)): 198 nM | Ke value of receptor selective antagonist nor-BNI (κ) (guinea pig ileum (GPI)): 0.63 nM

[Dmp^4]NOC(1-13)-NH2 [compound 29]
Half-life time, Rat brain homogenate [1]: 33.6 min | IC50 (human ORL1 receptor): 51.6 ± 12.9 nM | IC50 (δ-opioid receptor): > 10000 nM | IC50 (μ-opioid receptor): 629 ± 433 nM | IC50 (κ-opioid receptor): 299 ± 63 nM
